Measurements published in patent US20140329682A1, “METHOD OF CONTROLLING WEED IN A SUGAR CANE FIELD” (SUMITOMO CHEMICAL COMPANY, LIMITED, priority 2011, published 2014).

Key:
sugar cane [1] = test: Phytotoxicity on sugar cane, soil surface spray, metalaxyl-treated stem cutting (Example 12)
Description: (§1) The “phytotoxicity” evaluated herein is the damage characteristic determined to be due to a treated compound, and is clearly discriminated from the damage characteristic caused by a harmful animal or plant disease.
(§2) A 30 cm to 40 cm stem cutting of sugar cane is placed on a wet soil, and germination is stimulated. The stem cutting from which a bud has grown to about 1 cm is selected, and the length of the stem cutting is adjusted to be 3 cm so that the stem cutting has one node. Metalaxyl or metalaxyl-M is adhered to the stem cutting. A soil is packed into a plastic pot. Seeds of Amaranthus retroflexus are seeded thereon. The stem cutting of sugar cane treated with metalaxyl or metalaxyl-M is planted in the soil packed into the pot at a depth of 2 cm. […] Thereafter, the pot for a test is placed in a greenhouse.

sugar cane [2] = test: Phytotoxicity on sugar cane, soil surface spray, insecticide-treated stem cutting (Example 6)
Description: as §1
as §2, with “Clothianidin, thiamethoxiam, imidacloprid, dinotefuran, nitenpyram, acetamiprid” for “Metalaxyl”, “thiacloprid” for “metalaxyl-M”, “pot, and seeds” for “pot. Seeds”, “clothianidin, thiamethoxiam, imidacloprid, dinotefuran, nitenpyram, acetamiprid” for “metalaxyl”

Amaranthus retroflexus [3] = test: Herbicidal activity, soil surface spray, insecticide-treated stem cutting (Example 6); format: in vivo; details: 3 cm stem cutting treated with clothianidin, thiamethoxiam, imidacloprid, dinotefuran, nitenpyram, acetamiprid or thiacloprid, four weeks after treatment
Experimental: A 30 cm to 40 cm stem cutting of sugar cane is placed on a wet soil, and germination is stimulated. The stem cutting from which a bud has grown to about 1 cm is selected, and the length of the stem cutting is adjusted to be 3 cm so that the stem cutting has one node. Clothianidin, thiamethoxiam, imidacloprid, dinotefuran, nitenpyram, acetamiprid or thiacloprid is adhered to the stem cutting. A soil is packed into a plastic pot, and seeds of Amaranthus retroflexus are seeded thereon. The stem cutting of sugar cane treated with clothianidin, thiamethoxiam, imidacloprid, dinotefuran, nitenpyram, acetamiprid or thiacloprid is planted in the soil packed into the pot at a depth of 2 cm. […] Thereafter, the pot for a test is placed in a greenhouse.

Amaranthus retroflexus [4] = test: Herbicidal activity, spray above weed one week before planting (Example 5); format: in vivo; details: sprayed above weed three weeks after seeding, 3 cm stem cutting planted one week after treatment, four weeks after treatment
Amaranthus retroflexus [5] = test: Herbicidal activity, spray above weed before planting, metalaxyl-treated stem cutting (Example 13); format: in vivo; details: sprayed above weed, 3 cm stem cutting treated with metalaxyl or metalaxyl-M planted one week after treatment, four weeks after treatment
Amaranthus retroflexus [6] = test: Herbicidal activity, soil surface spray, azole-fungicide-treated stem cutting (Example 10); format: in vivo; details: 3 cm stem cutting treated with azaconazole, bitertanol or another listed azole-type fungicide, four weeks after treatment
Amaranthus retroflexus [7] = test: Herbicidal activity, spray above weed before planting, azole-fungicide-treated stem cutting (Example 11); format: in vivo; details: sprayed above weed, 3 cm stem cutting treated with azaconazole, bitertanol or another listed azole-type fungicide planted one week after treatment, four weeks after treatment
Experimental: A soil is packed into a plastic pat, and seeds of Amaranthus retroflexus are seeded thereon. Thereafter, the pot is placed in a greenhouse, and the weed is grown.

sugar cane [8] = test: Phytotoxicity on sugar cane, spray above weed before planting, metalaxyl-treated stem cutting (Example 13)
Experimental: as §1
A soil is packed into a plastic pot, and seeds of Amaranthus retroflexus are seeded thereon. Thereafter, a pot is placed in a greenhouse, and the weed is grown.
(§3) A 30 cm to 40 cm stem cutting of sugar cane is placed on a wet soil, and germination is stimulated. The stem cutting from which a bud has grown to about 1 cm is selected, and the length of the stem cutting is adjusted to be 3 cm so that the stem cutting has one node. Metalaxyl or metalaxyl-M is adhered to the stem cutting.
(§4) The pot for a test is placed in a greenhouse.

Amaranthus retroflexus [9] = test: Herbicidal activity, soil surface spray, strobilurin-treated stem cutting (Example 8); format: in vivo; details: 3 cm stem cutting treated with kresoxim-methyl, azoxystrobin or another listed strobilurin fungicide, four weeks after treatment
Description: A 30 cm to 40 cm stem cutting of sugar cane is placed on a wet soil, and germination is stimulated. The stem cutting from which a bud has grown to about 1 cm is selected, and the length of the stem cutting is adjusted to be 3 cm so that the stem cutting has one node. Kresoxim-methyl, azoxystrobin, trifloxystrobin, fluoxastrobin, picoxystrobin, pyraclostrobin, dimoxystrobin, pyribencarb, metominostrobin, orysastrobin, enestrobin, pyraoxystrobin or pyrametostrobin is adhered to the stem cutting. A soil is packed into a plastic pot, and seeds of Amaranthus retroflexus are seeded thereon. The stem cutting of sugar cane treated with kresoxim-methyl, azoxystrobin, trifloxystrobin, fluoxastrobin, picoxystrobin, pyraclostrobin, dimoxystrobin, pyribencarb, metominostrobin, orysastrobin, enestrobin, pyraoxystrobin or pyrametostrobin is planted in the soil packed into the pot at a depth of 2 cm. […] Thereafter, the pot for a test is placed in a greenhouse.

sugar cane [10] = test: Phytotoxicity on sugar cane, spray above weed before planting, strobilurin-treated stem cutting (Example 9)
Experimental: as §1
(§5) A soil is packed into a plastic pot, and seeds of Amaranthus retroflexus are seeded thereon. Thereafter, the pot is placed in a greenhouse, and the weed is grown.
as §3, with “Kresoxim-methyl, azoxystrobin, trifloxystrobin, fluoxastrobin, picoxystrobin, pyraclostrobin, dimoxystrobin, pyribencarb, metominostrobin, orysastrobin, enestrobin, pyraoxystrobin” for “Metalaxyl”, “pyrametostrobin” for “metalaxyl-M”
as §4

Amaranthus retroflexus [11] = test: Herbicidal activity, spray above weed before planting, strobilurin-treated stem cutting (Example 9); format: in vivo; details: sprayed above weed, 3 cm stem cutting treated with kresoxim-methyl, azoxystrobin or another listed strobilurin fungicide planted one week after treatment, four weeks after treatment
Description: A 30 cm to 40 cm stem cutting of sugar cane is placed on a wet soil, and germination is stimulated. The stem cutting from which a bud has grown to about 1 cm is selected, and the length of the stem cutting is adjusted to be 3 cm so that the stem cutting has one node. Kresoxim-methyl, azoxystrobin, trifloxystrobin, fluoxastrobin, picoxystrobin, pyraclostrobin, dimoxystrobin, pyribencarb, metominostrobin, orysastrobin, enestrobin, pyraoxystrobin or pyrametostrobin is adhered to the stem cutting.

Amaranthus retroflexus [12] = test: Herbicidal activity, soil surface spray, metalaxyl-treated stem cutting (Example 12); format: in vivo; details: 3 cm stem cutting treated with metalaxyl or metalaxyl-M, four weeks after treatment
Experimental: A soil is packed into a plastic pot. Seeds of Amaranthus retroflexus are seeded thereon.

sugar cane [13] = test: Phytotoxicity on sugar cane, spray above weed one week before planting (Example 5)
Experimental: as §1, §5
A 30 cm to 40 cm stem cutting of sugar cane is placed on a wet soil, and germination is stimulated. The stem cutting from which a bud has been grown to about 1 cm is selected, and the length of the stem cutting is adjusted to be 3 cm so that the stem cutting has one node.
as §4

sugar cane [14] = test: Phytotoxicity on sugar cane, soil surface spray, azole-fungicide-treated stem cutting (Example 10)
Description: as §1
A 30 to 40 cm stem cutting of sugar cane is placed on a wet soil, and germination is stimulated. The stem cutting from which a bud has grown to about 1 cm is selected, and the length of the stem cutting is adjusted to be 3 cm so that the stem cutting has one node. Azaconazole, bitertanol, bromoconazole, cyproconazole, difenoconazole, diniconazole, epoxyconazole, fenbuconazole, fluquinconazole, flusilazole, flutriafol, hexaconazole, imibenconazole, ipconazole, metconazole, myclobutanil, penconazole, propiconazole, prothioconazole, simeconazole, tebuconazole, tetraconazole, triadimenol, triticonazole, fenarimol, nuarimol, pyrifenox, imazalil, oxpoconazole fumarate, pefurazoate, procloraz or triflumizole is adhered to the stem cutting. A soil is packed into a plastic pot, and seeds of Amaranthus retroflexus are seeded thereon. The stem cutting of sugar cane treated with azaconazole, bitertanol, bromoconazole, cyproconazole, difenoconazole, diniconazole, epoxyconazole, fenbuconazole, fluquinconazole, flusilazole, flutriafol, hexaconazole, imibenconazole, ipconazole, metconazole, myclobutanil, penconazole, propiconazole, prothioconazole, simeconazole, tebuconazole, tetraconazole, triadimenol, triticonazole, fenarimol, nuarimol, pyrifenox, imazalil, oxpoconazole fumarate, pefurazoate, procloraz or triflumizole is planted in the soil packed into the pot at a depth of 2 cm. […] Thereafter, the pot for a test is placed in a greenhouse.

[15] = Example 9, sprayed above weed, 3 cm stem cutting treated with kresoxim-methyl, azoxystrobin or another listed strobilurin fungicide planted one week after treatment, four weeks after treatment
[16] = Example 12, 3 cm stem cutting treated with metalaxyl or metalaxyl-M, soil surface spray, four weeks after treatment
[17] = Example 6, 3 cm stem cutting treated with clothianidin, thiamethoxiam, imidacloprid, dinotefuran, nitenpyram, acetamiprid or thiacloprid, soil surface spray, four weeks after treatment
[18] = Example 13, sprayed above weed, 3 cm stem cutting treated with metalaxyl or metalaxyl-M planted one week after treatment, four weeks after treatment
[19] = Example 5, sprayed above weed three weeks after seeding, 3 cm stem cutting planted one week after treatment, four weeks after treatment
[20] = Example 10, 3 cm stem cutting treated with azaconazole, bitertanol or another listed azole-type fungicide, soil surface spray, four weeks after treatment

C#CCN1C(=O)COc2cc(F)c(-n3c(=O)n(C)c(=S)n(C)c3=O)cc21 [compound of the formula (I)]
phytotoxicity (sugar cane [1]; in vivo): significant phytotoxicity on sugar cane is not observed | phytotoxicity (sugar cane [2]; in vivo): significant phytotoxicity on sugar cane is not observed | herbicidal activity against Amaranthus retroflexus (Amaranthus retroflexus [3]): the controlling effect on a weed can be confirmed | herbicidal activity against Amaranthus retroflexus (Amaranthus retroflexus [4]): the controlling effect on a weed can be confirmed | herbicidal activity against Amaranthus retroflexus (Amaranthus retroflexus [5]): the controlling effect on a weed can be confirmed | herbicidal activity against Amaranthus retroflexus (Amaranthus retroflexus [6]): the control effect on a weed can be confirmed | herbicidal activity against Amaranthus retroflexus (Amaranthus retroflexus [7]): the controlling effect on a weed can be confirmed | phytotoxicity (sugar cane [8]; in vivo): significant phytotoxicity on sugar cane is not observed | herbicidal activity against Amaranthus retroflexus (Amaranthus retroflexus [9]): the controlling effect on a weed can be confirmed | phytotoxicity (sugar cane [10]; [15]): significant phytotoxicity on sugar cane is not observed | herbicidal activity against Amaranthus retroflexus (Amaranthus retroflexus [11]): the controlling effect on a weed can be confirmed | herbicidal activity against Amaranthus retroflexus (Amaranthus retroflexus [12]): the controlling effect on a weed can be confirmed | phytotoxicity (sugar cane [13]; in vivo): significant phytotoxicity on sugar cane is not found | phytotoxicity (sugar cane [14]; in vivo): significant phytotoxicity on sugar cane is not observed

C#CCN1C(=O)COc2cc(F)c(N3C(=O)C4=C(CCCC4)C3=O)cc21 [Flumioxazin, flumioxazin]
phytotoxicity (sugar cane [1]; [16]): significant phytotoxicity on sugar cane is not observed | phytotoxicity (sugar cane [2]; [17]): significant phytotoxicity on sugar cane is not observed | herbicidal activity against Amaranthus retroflexus (Amaranthus retroflexus [3]): the controlling effect on a weed can be confirmed | herbicidal activity against Amaranthus retroflexus (Amaranthus retroflexus [4]): the controlling effect on a weed can be confirmed | herbicidal activity against Amaranthus retroflexus (Amaranthus retroflexus [5]): the controlling effect on a weed can be confirmed | herbicidal activity against Amaranthus retroflexus (Amaranthus retroflexus [6]): the control effect on a weed can be confirmed | herbicidal activity against Amaranthus retroflexus (Amaranthus retroflexus [7]): the controlling effect on a weed can be confirmed | phytotoxicity (sugar cane [8]; [18]): significant phytotoxicity on sugar cane is not observed | herbicidal activity against Amaranthus retroflexus (Amaranthus retroflexus [9]): the controlling effect on a weed can be confirmed | phytotoxicity (sugar cane [10]; [15]): significant phytotoxicity on sugar cane is not observed | herbicidal activity against Amaranthus retroflexus (Amaranthus retroflexus [11]): the controlling effect on a weed can be confirmed | herbicidal activity against Amaranthus retroflexus (Amaranthus retroflexus [12]): the controlling effect on a weed can be confirmed | phytotoxicity (sugar cane [13]; [19]): significant phytotoxicity on sugar cane is not found | phytotoxicity (sugar cane [14]; [20]): significant phytotoxicity on sugar cane is not observed

CC(C)N(C)S(=O)(=O)NC(=O)c1cc(-n2c(=O)cc(C(F)(F)F)n(C)c2=O)c(F)cc1Cl [Saflufenacil, saflufenacil]
phytotoxicity (sugar cane [1]; [16]): significant phytotoxicity on sugar cane is not observed | phytotoxicity (sugar cane [2]; [17]): significant phytotoxicity on sugar cane is not observed | herbicidal activity against Amaranthus retroflexus (Amaranthus retroflexus [3]): the controlling effect on a weed can be confirmed | herbicidal activity against Amaranthus retroflexus (Amaranthus retroflexus [4]): the controlling effect on a weed can be confirmed | herbicidal activity against Amaranthus retroflexus (Amaranthus retroflexus [5]): the controlling effect on a weed can be confirmed | herbicidal activity against Amaranthus retroflexus (Amaranthus retroflexus [6]): the control effect on a weed can be confirmed | herbicidal activity against Amaranthus retroflexus (Amaranthus retroflexus [7]): the controlling effect on a weed can be confirmed | phytotoxicity (sugar cane [8]; [18]): significant phytotoxicity on sugar cane is not observed | herbicidal activity against Amaranthus retroflexus (Amaranthus retroflexus [9]): the controlling effect on a weed can be confirmed | phytotoxicity (sugar cane [10]; [15]): significant phytotoxicity on sugar cane is not observed | herbicidal activity against Amaranthus retroflexus (Amaranthus retroflexus [11]): the controlling effect on a weed can be confirmed | herbicidal activity against Amaranthus retroflexus (Amaranthus retroflexus [12]): the controlling effect on a weed can be confirmed | phytotoxicity (sugar cane [13]; [19]): significant phytotoxicity on sugar cane is not found | phytotoxicity (sugar cane [14]; [20]): significant phytotoxicity on sugar cane is not observed

CC(C)Oc1cc(-n2nc(C(C)(C)C)oc2=O)c(Cl)cc1Cl [oxadiazon]
phytotoxicity (sugar cane [1]; in vivo): significant phytotoxicity on sugar cane is not observed | phytotoxicity (sugar cane [2]; in vivo): significant phytotoxicity on sugar cane is not observed | herbicidal activity against Amaranthus retroflexus (Amaranthus retroflexus [3]): the controlling effect on a weed can be confirmed | herbicidal activity against Amaranthus retroflexus (Amaranthus retroflexus [4]): the controlling effect on a weed can be confirmed | herbicidal activity against Amaranthus retroflexus (Amaranthus retroflexus [5]): the controlling effect on a weed can be confirmed | herbicidal activity against Amaranthus retroflexus (Amaranthus retroflexus [6]): the control effect on a weed can be confirmed | herbicidal activity against Amaranthus retroflexus (Amaranthus retroflexus [7]): the controlling effect on a weed can be confirmed | phytotoxicity (sugar cane [8]; in vivo): significant phytotoxicity on sugar cane is not observed | herbicidal activity against Amaranthus retroflexus (Amaranthus retroflexus [9]): the controlling effect on a weed can be confirmed | phytotoxicity (sugar cane [10]; in vivo): significant phytotoxicity on sugar cane is not observed | herbicidal activity against Amaranthus retroflexus (Amaranthus retroflexus [11]): the controlling effect on a weed can be confirmed | herbicidal activity against Amaranthus retroflexus (Amaranthus retroflexus [12]): the controlling effect on a weed can be confirmed | phytotoxicity (sugar cane [13]; in vivo): significant phytotoxicity on sugar cane is not found | phytotoxicity (sugar cane [14]; in vivo): significant phytotoxicity on sugar cane is not observed
